Data set [1] deals with TRH receptors in rat cortical membranes. The experiment in a line: radioligand binding to ^3H-3MeHis-TRH-labelled receptors in rat cortex. The following applies: competition with 6-8 nM ^3H-3MeHis-TRH, Cheng-Prusoff. The protocol: Evaluation of the ability of TRH, Glp-Asn-ProNH2, and Glp-Asn-ProAMC to bind to ^3H-3MeHis-TRH-labelled receptors in rat cortex: Radioligand binding assays were conducted to investigate the possibility that the two TRH-DE inhibitors might exert their effects by acting independently at TRH receptors in the brain.
Cortex tissue from male Sprague-Dawley rats (250 g) was dissected out, weighed and homogenised in 30 volumes of ice-cold sodium phosphate buffer (0.02 M, pH 7.5). The homogenates were centrifuged at 30,000 g at 4° C. for 30 min. The supernatant was discarded and the pellet was resuspended at 100 mg wet wt/ml in buffer containing 177 μM bacitracin. […] Non-specific binding was defined in the presence of 10 μM TRH.
The statistical significance of differences between behavioural effects of treatments was determined using the Student's t-test or ANOVA, followed by a post-ANOVA test, as indicated. Radioligand binding data were analysed using non-linear curve fitting software (Prism, Graph Pad Software Inc.). IC50 values calculated from competition experiments were converted to Ki values using the Cheng-Prusoff (41) equation Ki=IC50/(1+L/Kd), where L=ligand concentration and Kd=the apparent dissociation constant for [^3H]-[3-MeHis]TRH.

The target of data set [2] is T1, TRH-DE (Sus scrofa, UniProt A0A287AP33).
T1 construct: The inventor purified TRH-DE from porcine brain according to purification procedures previously published by Dr. K. Bauer; from tissue; host or cells: porcine brain (TRH-DE); bovine kidney (DPP-IV, gift from Dr. C. H. Williams)
T1 sequence (A0A287AP33 1-1066): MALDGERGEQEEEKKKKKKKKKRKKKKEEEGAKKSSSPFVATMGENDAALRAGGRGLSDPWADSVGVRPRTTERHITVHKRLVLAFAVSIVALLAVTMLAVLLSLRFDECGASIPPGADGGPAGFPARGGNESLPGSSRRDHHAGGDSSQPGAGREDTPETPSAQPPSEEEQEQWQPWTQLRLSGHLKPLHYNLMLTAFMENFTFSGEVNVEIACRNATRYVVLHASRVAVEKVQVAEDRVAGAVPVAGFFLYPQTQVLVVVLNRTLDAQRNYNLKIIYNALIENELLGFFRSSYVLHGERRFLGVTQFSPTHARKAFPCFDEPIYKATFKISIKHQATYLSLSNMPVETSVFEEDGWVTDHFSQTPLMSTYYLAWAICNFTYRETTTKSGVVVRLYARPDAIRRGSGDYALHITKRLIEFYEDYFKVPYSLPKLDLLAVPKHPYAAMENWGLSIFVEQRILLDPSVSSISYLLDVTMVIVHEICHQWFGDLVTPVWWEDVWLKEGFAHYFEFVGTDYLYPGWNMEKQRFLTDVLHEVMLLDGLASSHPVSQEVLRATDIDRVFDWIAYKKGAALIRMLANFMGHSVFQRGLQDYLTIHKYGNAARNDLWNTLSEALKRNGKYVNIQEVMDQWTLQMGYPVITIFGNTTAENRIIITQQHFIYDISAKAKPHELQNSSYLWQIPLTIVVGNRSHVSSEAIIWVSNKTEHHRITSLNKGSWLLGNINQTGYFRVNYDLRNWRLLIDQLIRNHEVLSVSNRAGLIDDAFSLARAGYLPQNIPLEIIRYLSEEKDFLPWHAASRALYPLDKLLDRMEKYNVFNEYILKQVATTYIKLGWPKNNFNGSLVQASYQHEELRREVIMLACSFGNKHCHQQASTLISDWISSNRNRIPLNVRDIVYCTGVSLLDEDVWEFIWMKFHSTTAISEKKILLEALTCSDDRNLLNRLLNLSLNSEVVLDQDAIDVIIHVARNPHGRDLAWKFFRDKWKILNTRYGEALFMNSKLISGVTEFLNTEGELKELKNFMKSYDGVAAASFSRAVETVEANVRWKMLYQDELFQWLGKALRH
The experiment in a line: continuous coupled fluorometric TRH-DE assay (TRHAMC substrate, DPP-IV coupling enzyme). The data set is classed as biochemical, porcine. The following applies: for Ki: non-linear regression, five TRHAMC concentrations and at least three peptide concentrations, mean±S.D. (n=3). The protocol:
The inventor purified TRH-DE from porcine brain according to purification procedures previously published by Dr. K. Bauer, (Max-Planck-Institut, Hannover, Germany) (1). TRH-DE was purified almost 20,000 fold. […] Dipeptidyl peptidase IV (DPP-IV) (EC 3.4.14.5), purified from bovine kidney (7.7 mg ml^−1, specific activity of 17.5 U mg^−1 with Gly-ProAMC as substrate), was obtained as a gilt from Dr. C. H. Williams (Queen's University Belfast, U.K). (DPP-IV was used as the coupling enzyme used in the fluorometric assays).
One unit (U) of enzyme activity was defined as that amount catalysing the formation of one μmol of product in one minute under the standard conditions employed. All incubations in the assays described below were carried out in 20 mM potassium phosphate buffer, pH 7.5, at 37° C.
Kinetic analysis of peptides that are not hydrolysed by TRH-DE. A recently-developed continuous coupled fluorometric assay (23) was used to investigate the ability of those library peptides that were not hydrolysed by TRH-DE to inhibit TRHAMC degradation by TRH-DE. In this assay, TRHAMC is the substrate and dipeptidyl peptidase IV (DPP-IV) (EC 3.4.14.5) is the coupling enzyme. The reaction sequence is:
The reaction was monitored continuously by measuring the increase in AMC fluorescence. A linear progress curve with no discernible lag period was observed when the reaction was monitored over a period of 10 minutes. Nevertheless, data sampling was not commenced until 100 s from the start of the reaction to ensure measurements were taken after a steady state had been reached (see Ref. 23).
In a preliminary experiment, the peptides were screened for their ability to inhibit TRH-DE activity. The initial rate of TRHAMC hydrolysis by TRH-DE was measured by incubating 5 μM TRHAMC with 1.23 μg DPP-IV and 0.32 μg TRH-DE, both in the absence and presence of each library peptide (1 mM final concentration) under standard assay conditions (23). In each case the percentage inhibition (i%) was calculated using the equation i%=100(1-vi/vo), where vi and vo are the initial velocities in the presence and absence of peptide, respectively.
Since these peptides were poor inhibitors they were not examined further. The Ki values for the remainder of the peptides were determined by measuring their effects on TRHAMC degradation by TRH-DE using the continuous assay. Data were collected in duplicate at five different substrate concentrations and at least three different concentrations of each peptide.
Reversibility and time dependence of the inhibition produced by Glp-Gln-ProNH2, Glp-Asn-ProNH2 and Glp-Asn-ProAMC were examined by initially preincubating TRH-DE with each peptide at 37° C. for various periods up to 75 min. To investigate time dependence, the enzyme-peptide solution was subsequently added to the reaction mixture containing TRHAMC, DPP-IV, buffer and peptide, and TRH-DE activity was measured using the continuous assay. The final concentration of Glp-Gln-ProNH2, Glp-Asn-ProNH2 and Glp-Asn-ProAMC used was 400, 160 and 1 μM, respectively. […] TRH-DE activity was not affected by pre-incubation at 37° C.
Fluorescence measurements were made using a Perkin Elmer LS 50B Luminescence Spectrometer fitted with a thernostated cell holder. Wavelengths for excitation and emission were set at 370 nm and 440 nm, respectively, with slit widths of 10 nm and 5 nm, respectively.

Data set [3] concerns the target T1, TRH-DE. The experiment in a line: HPLC assay of peptide hydrolysis by TRH-DE (Glp production). The data set is classed as biochemical, porcine. The conditions noted are these: 1 mM peptide incubated with TRH-DE 18 h at 37° C., HPLC. In short, it runs like this:
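Porcine brain TRH-DE incubated with 1 mM peptide in 20 mM potassium phosphate, pH 7.5, 37 °C: screen with 0.8 μg enzyme for 18 h; rate microassays with 0.8-3.2 μg enzyme for 5 min to 18 h, in triplicate. Reactions stopped with TFA; Glp quantified by C-18 reverse-phase HPLC, UV 206 nm.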

Converted amounts (≈) assume the structure as drawn. Where a SMILES comes first, the peptide text is derived from it. [ ]: non-standard residue; d: D form. pGlu = O=C1CC[C@@H](C(=O)O)N1

The term pKi denotes the Ki on a negative log10 scale, so that one unit is a factor of ten. Lower therefore signals a large Ki. One may read the solubility as how much of the substance goes into solution per volume. A high value points to a readily soluble substance. One may read the Ki as a dissociation constant, usually derived from enzyme kinetics or from competition with a known ligand. As a reminder, the inhibition is the relative decrease from the control value, in per cent. A low value points to little suppression. `NC(=O)C[C@H](NC(=O)[C@@H]1CCC(=O)N1)C(=O)N1CCC[C@H]1C(N)=O` [Glp-Asn-ProNH2, pyroglutamyl-asparaginyl-prolineamide] ([pGlu]-Asn-Pro-NH2) came in with a pKi in data set [1] of 5.15±0.24. Also, the solubility in “physchem” amounted to 1000 µg/mL (≈ 2950 µM). Besides, the “mode of inhibition of TRH-DE” value at TRH-DE [2] (continuous assay, Lineweaver-Burk plot) was “simple competitive inhibitors”. The Ki on TRH-DE [2] and at TRH-DE [2] (listed as Glp-Asn-Pro-NH2) was 17.5 µM each time. 1000 µM produced 97% inhibition against TRH-DE [2] (peptide 1 mM, 5 μM TRHAMC substrate). Further, at TRH-DE [2] (preincubation with TRH-DE up to 75 min at 37° C., Glp-Gln-ProNH2 400, Glp-Asn-ProNH2 160, Glp-Asn-ProAMC 1 μM), the “reversibility and time dependence of inhibition” value is “fully reversible and not time-dependent”. In addition, the “hydrolysis by TRH-DE (release of Glp)” value on TRH-DE [3] is listed as “No detectable Glp”.

Values taken from US7378397B2 (The Provost, Fellows and Scholars of the College of the …, priority 2000, dated 2008).
